# Test results as given in paper PMC8121805, “Discovery of first-in-class inhibitors of ASH1L histone methyltransferase with anti-leukemic activity” (Nature Communications, 2021).
# Several values for one entry are separate records, joined by “and”; a condition that tells them apart may be missing. Identical values can stand only once.
# Tests used:
# Type in all cases: cell-based, human
# MV4;11 cells [1] = assay: Annexin V apoptosis assay (flow cytometry); conditions: for MV4;11 % Annexin V(+) cells: 7 days
# MV4;11 cells [2] = assay: Flow cytometry of CD11B expression (differentiation); conditions: for MV4;11 % CD11B+ cells: 7 days
# Protocol: (§1) In addition, 1 × 10^5 cells per sample were stained with Zombie Aqua™ dye (1:100 dilution) for 15 min using the Zombie Aqua™ Fixable Viability Kit (Zombie Aqua™ Fixable Viability Kit, Biolegend®) […] and then for 30 min with an anti-CD11B-PE antibody (982606, ICRF44, Biolegend®) or anti-CD11B-Pacific Blue (101224, BD BioLegend) antibody at 1:50 dilution, according to the No-wash Sequential Staining Protocol described by the manufacturer (BioLegend, Zombie Aqua Fixable Viability Kit). Cells were washed twice with 500 µL PBS containing 1% FBS and resuspended in 200 µL PBS with 1% FBS.
# KOPN8 cells [3] = assay: as above; conditions: 7 days
# Protocol: as §1
# RS4;11 cells = assay: MTT cell viability assay; conditions: 7 days
# Protocol: (§2) Human leukemia cells K562, MV4;11 and RS4;11 (purchased from ATCC) and KOPN8, MOLM13 (purchased from DSMZ) were cultured in RPMI 1640 (Invitrogen) supplemented with 10% heat inactivated (h.i.) FBS and 1% penicillin/streptomycin (Invitrogen). SET2 cells (purchased from DSMZ) were cultured in RPMI 1640 supplemented with 20% h.i. FBS and 1% penicillin/streptomycin. Cells were plated at 1 × 10^5 to 2 × 10^5 cells/mL depending on cell line and treated with 0.25% DMSO or varying concentrations of compounds and incubated at 37 °C, 5% CO2 incubator for 7 days. Media was changed on day 3 or 4 and compounds were resupplied. […] Cell suspensions (100 μL) were transferred to the 96-well plates for each sample in quadruplicate at the time of media change. At day 7, 10 µL of MTT reagent (M6494, Molecular Probes™) was added to each well of the 96 well plate and incubated at 37 °C for 4 h. The formazan was then solubilized by adding 100 µL acidified 10% SDS solution and incubated at 37 °C overnight. Plates were read for absorbance at 570 nm using a PHERAstar BMG microplate reader. The experiments were performed two times in quadruplicates with calculation of mean and SD for each condition. Data were analyzed in Prism 8.0.0 to obtain GI50 values.
# SET2 cells = assay: MTT cell viability assay; conditions: MTT, 7 days
# Protocol: as §2
# [4] = test system: MLL fusion target genes in MOLM13 cells; assay: Real time qRT-PCR gene expression
# Protocol: 0.5 × 10^6 – 3 × 10^6 cells from each sample were collected at days 7 or 8 of treatment, centrifuged at 211 xg, and RNA was extracted according to the RNeasy Mini Kit protocol (74106, Qiagen). Extracted RNA was quantified using Nanodrop 2000 UV-Vis spectrophotometer and 0.5–1 µg of total RNA was reverse transcribed into cDNA using High-Capacity cDNA Reverse Transcription Kit (4368814, Applied Biosystems™) according to the manufacturer’s protocol. Real-time PCR was performed using the CFX96 Touch Real-Time PCR Detection System (Bio-Rad). TaqMan Gene Expression Master Mix and TaqMan Gene Expression Assays were purchased from Applied Biosystems. Relative quantification of each gene transcript was carried out using the comparative Ct method as described in the Applied Biosystems User Bulletin no. 2. TaqMan Gene Expression Assays were used: HPRT1: Hs02800695_m1, DLX2: Hs00269993_m1, FLT3: Hs00174690_m1, HOXA9: Hs00365956_m1, MEF2C: Hs00231149_m1, MEIS1: Hs00180020_m1, MNDA: Hs00935905_m1.
# Supplementary Figure 10. Effect of AS-nc on gene expression in MLL leukemia cells. (a, b) Quantitative RT-PCR performed in MOLM13 cells (a) or MV4;11 cells (b) after 7 days of treatment with AS-nc. Gene expression was normalized to HPRT1 and referenced to the DMSO treated cells. Representative data from two independent experiments, each performed in triplicates, […]
# KOPN8 cells [5] = assay: Annexin V apoptosis assay (flow cytometry); conditions: 7 days
smiles,measurement,setting,value
CN1CC(C(=O)NCc2ccc3c(-c4cccc(C(N)=O)c4)cn(C4CCN(S(=O)(=O)C(F)(F)F)CC4)c3c2)C1 [AS-nc],MV4;11 % Annexin V(+) cells,MV4;11 cells [1]; 2 uM,3.62% and 6.04% and 7.38%
same,MV4;11 % Annexin V(+) cells,MV4;11 cells [1]; 4 uM,2.35% and 3.67% and 4.83%
same,MV4;11 % Annexin V(+) cells,MV4;11 cells [1]; 6 uM,3% and 3.59% and 6.28%
same,apoptosis in the MLL leukemia cells (Annexin V positive cells),MV4;11 cells [1]; MV4;11 and KOPN8,not observed
same,MV4;11 % CD11B+ cells,MV4;11 cells [2]; 2 uM,1.31% and 1.08% and 1.06%
same,MV4;11 % CD11B+ cells,MV4;11 cells [2]; 4 uM,0.67% and 0.84% and 0.66%
same,MV4;11 % CD11B+ cells,MV4;11 cells [2]; 6 uM,1.1% and 1.04% and 1.27%
same,differentiation in MLL leukemia cells,MV4;11 cells [2]; MV4;11 and KOPN8,not observed
same,KOPN8 % CD11B+ cells,KOPN8 cells [3]; 2 uM,0.42% and 0.43% and 0.48%
same,KOPN8 % CD11B+ cells,KOPN8 cells [3]; 4 uM,0.64% and 0.72% and 0.67%
same,KOPN8 % CD11B+ cells,KOPN8 cells [3]; 6 uM,0.89% and 0.7% and 0.72%
same,% activity RS4;11,RS4;11 cells; log[compound] -4.92082,85.5125% and 87.6993% and 89.3394% and 75.672%
same,% activity RS4;11,RS4;11 cells; log[compound] -5.22185,105.376% and 104.647% and 93.5307% and 91.5262%
same,% activity RS4;11,RS4;11 cells; log[compound] -5.52288,102.096% and 100.638% and 93.713% and 78.4055%
same,% activity RS4;11,RS4;11 cells; log[compound] -5.82391,120.137% and 113.941% and 76.4009% and 77.1298%
same,% activity RS4;11,RS4;11 cells; log[compound] -6.12494,99.7267% and 104.647% and 93.8952%
same,% activity RS4;11,RS4;11 cells; log[compound] -6.42597,106.287% and 103.553% and 98.8155% and 91.344%
same,% activity SET2,SET2 cells; log[compound] -4.92082,98.5542% and 101.644% and 102.951% and 102.436%
same,% activity SET2,SET2 cells; log[compound] -5.22185,96.2567% and 98.5146% and 98.9107% and 94.9495%
same,% activity SET2,SET2 cells; log[compound] -5.52288,90.1168% and 94.8703% and 93.8007% and 101.723%
same,% activity SET2,SET2 cells; log[compound] -5.82391,80.8081% and 86.1953% and 84.7693% and 93.5235%
same,% activity SET2,SET2 cells; log[compound] -6.12494,93.2858% and 94.8703% and 102.04% and 107.625%
same,% activity SET2,SET2 cells; log[compound] -6.42597,105.803% and 101.208% and 102.278% and 90.711%
same,"MOLM13 fold change vs DMSO, DLX2",[4]; AS-nc 2 uM,1.06 and 1.01 and 0.76
same,"MOLM13 fold change vs DMSO, FLT3",[4]; AS-nc 2 uM,1.07 and 0.95 and 0.92
same,"MOLM13 fold change vs DMSO, HOXA9",[4]; AS-nc 2 uM,1.01 and 1.09 and 0.84
same,"MOLM13 fold change vs DMSO, MEF2C",[4]; AS-nc 2 uM,0.98 and 1.02 and 0.94
same,"MOLM13 fold change vs DMSO, MEIS1",[4]; AS-nc 2 uM,1.03 and 1.08 and 0.97
same,"MOLM13 fold change vs DMSO, MNDA",[4]; AS-nc 2 uM,1.45 and 1.05 and 1.01
same,"MOLM13 fold change vs DMSO, DLX2",[4]; AS-nc 4 uM,1.02 and 0.96 and 0.71
same,"MOLM13 fold change vs DMSO, FLT3",[4]; AS-nc 4 uM,1.03 and 0.86 and 0.96
same,"MOLM13 fold change vs DMSO, HOXA9",[4]; AS-nc 4 uM,0.95 and 1 and 1.06
same,"MOLM13 fold change vs DMSO, MEF2C",[4]; AS-nc 4 uM,1 and 0.95 and 1.01
same,"MOLM13 fold change vs DMSO, MEIS1",[4]; AS-nc 4 uM,0.97 and 1.1 and 0.95
same,"MOLM13 fold change vs DMSO, MNDA",[4]; AS-nc 4 uM,1.29 and 1.57 and 1.44
same,"MOLM13 fold change vs DMSO, DLX2",[4]; AS-nc 6 uM,1.04 and 1 and 0.77
same,"MOLM13 fold change vs DMSO, FLT3",[4]; AS-nc 6 uM,1.07 and 0.95 and 0.88
same,"MOLM13 fold change vs DMSO, HOXA9",[4]; AS-nc 6 uM,1.03 and 0.88 and 0.9
same,"MOLM13 fold change vs DMSO, MEF2C",[4]; AS-nc 6 uM,1.03 and 0.94 and 0.96
same,"MOLM13 fold change vs DMSO, MEIS1",[4]; AS-nc 6 uM,0.86 and 1.09 and 0.93
same,"MOLM13 fold change vs DMSO, MNDA",[4]; AS-nc 6 uM,1.31 and 1.06 and 0.93
same,"expression of MLL fusion target genes (MEF2C, DLX2, FLT3, HOXA9)",[4]; MOLM13 and MV4;11,no changes
same,KOPN8 % Annexin V(+) cells,KOPN8 cells [5]; 2 uM,6.32% and 5.25% and 5.31%
same,KOPN8 % Annexin V(+) cells,KOPN8 cells [5]; 4 uM,7.36% and 6.41% and 6.28%
same,KOPN8 % Annexin V(+) cells,KOPN8 cells [5]; 6 uM,7.96% and 6.03% and 6.25%
